Where a name gives a salt, the structure may show the parent alone. Read-outs that look alike come from different tables or passages of the source.
Biological target: T1, 5-HT1F receptor (Homo sapiens, UniProt P30939)
T1 sequence (P30939 1-366): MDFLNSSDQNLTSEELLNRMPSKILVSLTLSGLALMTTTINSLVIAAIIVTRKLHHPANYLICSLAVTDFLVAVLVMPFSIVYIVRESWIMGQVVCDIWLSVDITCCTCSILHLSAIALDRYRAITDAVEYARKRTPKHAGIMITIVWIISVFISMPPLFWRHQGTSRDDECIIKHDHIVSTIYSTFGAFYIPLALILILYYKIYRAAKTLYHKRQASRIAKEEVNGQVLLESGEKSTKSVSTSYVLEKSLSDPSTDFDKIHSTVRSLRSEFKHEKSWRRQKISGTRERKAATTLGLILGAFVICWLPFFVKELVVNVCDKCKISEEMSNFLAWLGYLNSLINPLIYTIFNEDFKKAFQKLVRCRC
Experiment: Radioligand ([3H]5-HT) binding to the 5-HT1F receptor subtype
Design: expressed in transfected cells; host or cells: Ltk- cells (membranes)
Conditions: for inhibition at 1 µM: read-out: 5-HT1F BINDING, % displacement at 1000 nM
Method: The cells were washed twice with phosphate-buffered saline, scraped from the culture dishes into 5 mL of ice-cold phosphate-buffered saline, and centrifuged at 200×g for 5 minutes at 4° C. The pellet was resuspended in 2.5 mL of ice-cold Tris buffer (20 mM Tris HCl, pH=7.4 at 23° C., 5 mM EDTA) and homogenized with a Wheaton tissue grinder. The lysate was subsequently centrifuged at 200×g for 5 minutes at 4° C. to pellet large fragments which were discarded. The supernatant was collected and centrifuged at 40,000×g for 20 minutes at 4° C. The pellet resulting from this centrifugation was washed once in ice-cold Tris wash buffer and resuspended in a final buffer containing 50 mM Tris HCl and 0.5 mM EDTA, pH=7.4 at 23° C. Membrane preparations were kept on ice and utilized within two hours for the radioligand binding assays.
Saturation studies were conducted using [^3 H]5-HT at 12 different concentrations ranging from 0.5 nM to 100 nM. […] The binding profile of drugs in competition experiments was accomplished using 10-12 concentrations of compound. […] Nonspecific binding was defined in the presence of 10 μM 5-HT. Binding was initiated by the addition of 50 μL membrane homogenates (10-20 μg). The reaction was terminated by rapid filtration through presoaked (0.5% polyethyleneimine) filters using 48R Cell Brandel Harvester (Gaithersburg, Md.). Subsequently, filters were washed for 5 seconds with ice cold buffer (50 mM Tris HCl, pH=7.4 at 4° C.), dried and placed into vials containing 2.5 mL Readi-Safe (Beckman, Fullerton, Calif.) and radioactivity was measured using a Beckman LS 5000TA liquid scintillation counter. […] Binding data was analyzed by computer-assisted nonlinear regression analysis (Accufit and Accucomp, Lunden Software, Chagrin Falls, Ohio). […] All experiments were performed in triplicate. […]

[1] = Table I, [3H]5-HT displacement, transfected Ltk- cell membranes, 37° C., read-out: 5-HT1F BINDING Ki

SMILES | Ki [1] | other results
COc1ccc(CCN2CCC(c3c[nH]c4ccc(OC)cc34)CC2)cc1 [Example 13, 5-methoxy-3-<1-<2-<4-methoxyphenyl>ethyl>-4-piperidinyl>-1H-indole oxalate] | 128 nM | 
CCOc1ccc(CCN2CCC(c3c[nH]c4ccccc34)CC2)cc1 [Example 14, 3-<1-<2-<4-ethoxyphenyl>ethyl>-4-piperidinyl>-1H-indole hydrochloride] | 185 nM | 
c1ccc(COc2ccc(CCN3CCC(c4c[nH]c5ccccc45)CC3)cc2)cc1 [Example 15, 3-<1-<2-<4-benzyloxyphenyl>ethyl>-4-piperidinyl>-1H-indole] | 844 nM | 
Fc1ccc2[nH]cc(C3=CCN(CCc4ccccc4)CC3)c2c1 [Example 18, 5-fluoro-3-<1-<2-phenylethyl>-4-<1,2,3,6-tetrahydropyridinyl>>-1H-indolehydrochloride] |  | Ki: 48.3 nM
C1=C(c2c[nH]c3ccccc23)CCN(CCc2ccccc2)C1 [Example 19, 3-<1-<2-phenylethyl>-4-<1,2,3,6-tetrahydropyridinyl>>-1H-indole] |  | Ki: 81.1 nM
Clc1ccc2[nH]cc(C3=CCN(CCc4ccccc4)CC3)c2c1 [Example 20, 5-chloro-3-<1-<2-phenylethyl>-4-<1,2,3,6-tetrahydropyridinyl>>-1H-indolehydrochloride] |  | Ki: 38.8 nM
COc1ccc2[nH]cc(C3=CCN(CCc4ccccc4)CC3)c2c1 [Example 21, 5-methoxy-3-<1-<2-phenylethyl>-4-<1,2,3,6-tetrahydropyridinyl>>-1H-indolehydrochloride] |  | Ki: 33.9 nM
C1=C(c2c[nH]c3ccc(OCc4ccccc4)cc23)CCN(CCc2ccccc2)C1 [Example 22, 5-benzyloxy-3-<1-<2-phenylethyl>-4-<1,2,3,6-tetrahydropyridinyl>>-1H-indolehydrochloride] |  | inhibition at 1 µM: 62%
Cc1ccc2[nH]cc(C3=CCN(CCc4ccccc4)CC3)c2c1 [Example 23, 5-methyl-3-<1-<2-phenylethyl>-4-<1,2,3,6-tetrahydropyridinyl>>-1H-indolemaleate] |  | Ki: 28.3 nM
NC(=O)c1ccc2[nH]cc(C3=CCN(CCc4ccccc4)CC3)c2c1 [Example 24, 5-carboxamido-3-<1-<2-phenylethyl>-4-<1,2,3,6-tetrahydropyridinyl>>-1H-indole maleate] |  | Ki: 23.6 nM
COc1ccc(CCN2CCC(c3c[nH]c4ccccc34)CC2)cc1 [Example 33, 3-<1-<2-<4-methoxyphenyl>ethyl>-4-piperidinyl>-1H-indole hydrochloride] | 127 nM | 
C1=C(c2c[nH]c3ccccc23)CCN(CCc2cccc3ccccc23)C1 [Example 34, 3-<1-<2-<1-naphthyl>ethyl>-4-<1,2,3,6-tetrahydropyridinyl>>-1H-indole] |  | inhibition at 1 µM: 38%
c1ccc2c(CCN3CCC(c4c[nH]c5ccccc45)CC3)cccc2c1 [Example 35, 3-<1-<2-<1-naphthyl>ethyl>-4-piperidinyl>-1H-indole] | 76.7 nM | 
C1=C(c2c[nH]c3ccccc23)CCN(CCOc2ccccc2)C1 [Example 37, 3-<1-<2-phenoxyethyl>-4-<1,2,3,6-tetrahydropyridinyl>>-1H-indolehydrochloride] | 413 nM | 
C1=C(c2c[nH]c3ccccc23)CCN(CCCOc2ccccc2)C1 [Example 38, 3-<1-<3-phenoxypropyl>-4-<1,2,3,6-tetrahydropyridinyl>>-1H-indolehydrochloride] | 136 nM | 

More lines, main results first:

Ki [1] | SMILES | other results
29.5 nM | Fc1ccccc1CCN1CCC(c2c[nH]c3ccccc23)CC1 [Example 1, 3-<1-<2-<2-fluorophenyl>ethyl>-4-piperidinyl>-1H-indole hydrochloride] | 
55.5 nM | Fc1cccc(CCN2CCC(c3c[nH]c4ccccc34)CC2)c1 [Example 2, 3-<1-<2-<3-fluorophenyl>ethyl>-4-piperidinyl>-1H-indole hydrochloride] | 
31 nM | Fc1ccc(CCN2CCC(c3c[nH]c4ccccc34)CC2)cc1 [Example 3, 3-<1-<2-<4-fluorophenyl>ethyl>-4-piperidinyl>-1H-indole hydrochloride] | 
35.8 nM | COc1ccc2[nH]cc(C3CCN(CCc4ccc(F)cc4)CC3)c2c1 [Example 4, 5-methoxy-3-<1-<2-<4-fluorophenyl>ethyl>-4-piperidinyl>-1H-indolehydrochloride] | 
35.2 nM | Clc1ccccc1CCN1CCC(c2c[nH]c3ccccc23)CC1 [Example 5, 3-<1-<2-<2-chlorophenyl>ethyl>-4-piperidinyl>-1H-indole hydrochloride] | 
11.7 nM | Clc1cccc(CCN2CCC(c3c[nH]c4ccccc34)CC2)c1 [Example 6, 3-<1-<2-<3-chlorophenyl>ethyl>-4-piperidinyl>-1H-indole hydrochloride] | 
73.3 nM | Brc1ccc(CCN2CCC(c3c[nH]c4ccccc34)CC2)cc1 [Example 7, 3-<1-<2-<4-bromophenyl>ethyl>-4-piperidinyl>-1H-indole hydrochloride] | 
45 nM | Cc1ccccc1CCN1CCC(c2c[nH]c3ccccc23)CC1 [Example 8, 3-<1-<2-<2-methylphenyl>ethyl>-4-piperidinyl>-1H-indole hydrochloride] | 
29.7 nM | Cc1cccc(CCN2CCC(c3c[nH]c4ccccc34)CC2)c1 [Example 9, 3-<1-<2-<3-methylphenyl>ethyl>-4-piperidinyl>-1H-indole hydrochloride] | 
67.6 nM | Cc1ccc(CCN2CCC(c3c[nH]c4ccccc34)CC2)cc1 [Example 10, 3-<1-<2-<4-methylphenyl>ethyl>-4-piperidinyl>-1H-indole hydrochloride] | 
34 nM | COc1ccccc1CCN1CCC(c2c[nH]c3ccccc23)CC1 [Example 11, 3-<1-<2-<2-methoxyphenyl>ethyl>-4-piperidinyl>-1H -indole hydrochloride] | 
21.1 nM | COc1cccc(CCN2CCC(c3c[nH]c4ccccc34)CC2)c1 [Example 12, 3-<1-<2-<3-methoxyphenyl>ethyl>-4-piperidinyl>-1H-indole hydrochloride] | 
64.3 nM | FC(F)(F)c1ccccc1CCN1CCC(c2c[nH]c3ccccc23)CC1 [Example 16, 3-<1-<2-<2-trifluoromethylphenyl>ethyl>-4-piperidinyl>-1H-indolehydrochloride] | 
16.1 nM | FC(F)(F)c1cccc(CCN2CCC(c3c[nH]c4ccccc34)CC2)c1 [Example 17, 3-<1-<2-<3-trifluoromethylphenyl>ethyl>-4-piperidinyl>-1H -indole] | 
29.6 nM | Fc1ccc2[nH]cc(C3CCN(CCc4ccccc4)CC3)c2c1 [Example 25, 5-fluoro-3-<1-<2-phenylethyl>-4-piperidinyl>-1H-indole hydrochloride] | 
52.1 nM | c1ccc(CCN2CCC(c3c[nH]c4ccccc34)CC2)cc1 [Example 26, 3-<1-<2-phenylethyl>-4-piperidinyl>-1H-indole] | 
45.5 nM | Clc1ccc2[nH]cc(C3CCN(CCc4ccccc4)CC3)c2c1 [Example 27, 5-chloro-3-<1-<2-phenylethyl>-4-piperidinyl>-1H-indole hydrochloride] | 
39.2 nM | COc1ccc2[nH]cc(C3CCN(CCc4ccccc4)CC3)c2c1 [Example 28, 5-methoxy-3-<1-<2-phenylethyl>-4-piperidinyl>-1H-indole hydrochloride] | 
17.2 nM | c1ccc(CCN2CCC(c3c[nH]c4ccc(OCc5ccccc5)cc34)CC2)cc1 [Example 29, 5-benzyloxy-3-<1-<2-phenylethyl>-4-piperidinyl>-1H-indole hydrochloride] | 
37.8 nM | Cc1ccc2[nH]cc(C3CCN(CCc4ccccc4)CC3)c2c1 [Example 30, 5-methyl-3-<1-<2-phenylethyl>-4-piperidinyl>-1H -indole hydrochloride] | 
36.9 nM | NC(=O)c1ccc2[nH]cc(C3CCN(CCc4ccccc4)CC3)c2c1 [Example 31, 5-carboxamido-3-<1-<2-phenylethyl>-4-piperidinyl>-1H-indole hydrochloride] | 
52.1 nM | Clc1ccc(CCN2CCC(c3c[nH]c4ccccc34)CC2)cc1 [Example 32, 3-<1-<2-<4-chlorophenyl>ethyl>-4-piperidinyl>-1H-indole hydrochloride] | 
2.5 nM | Oc1ccc2[nH]cc(C3CCN(CCc4ccccc4)CC3)c2c1 [Example 36, 5-hydroxy-3-<1-<2-phenylethyl>-4-piperidinyl>-1H-indole hydrochloride] | 

Reference: patent US5521197A, “3-<1-alkylenearyl>-4-<1,2,3,6-tetrahydropyridinyl>-and 3-<1-alkylenearyl>-4-piperidinyl-1h-indoles: new 5-HT1F agonists” (Eli Lilly and Company, priority 1994, dated 1996)
